Values joined by “and” are separate entries in the source; they are usually repeats but may differ in a detail not shown here. Equal entries are not always repeated.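 Step 1: Grow cells in 96-well plates. Step 2: Expose to compound for 48 hours at 5 concentrations. Step 3: Interpolate endpoints linearly; if unreached, use highest concentration. GI50 is the concentration that inhibits growth by half. TGI: total growth inhibition.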
Columns and labels:
Test in all cases: DTP human tumour cell line panel, 48 h
786-0 renal = system: 786-0 renal
ACHN renal = system: ACHN renal
HCT-15 colon = system: HCT-15 colon
CCRF-CEM leukemia = system: CCRF-CEM leukemia
SR leukemia = system: SR leukemia
MCF7 breast = system: MCF7 breast
SK-MEL-2 melanoma = system: SK-MEL-2 melanoma
NCI/ADR-RES ovarian = system: NCI/ADR-RES ovarian
MALME-3M melanoma = system: MALME-3M melanoma
NCI-H23 lung = system: NCI-H23 lung
SF-539 CNS = system: SF-539 CNS
OVCAR-5 ovarian = system: OVCAR-5 ovarian
UACC-257 melanoma = system: UACC-257 melanoma
NCI-H522 lung = system: NCI-H522 lung
NCI-H460 lung = system: NCI-H460 lung
KM12 colon = system: KM12 colon
EKVX NSCLC = system: EKVX NSCLC
RPMI-8226 leukemia = system: RPMI-8226 leukemia
SK-MEL-28 melanoma = system: SK-MEL-28 melanoma
OVCAR-4 ovarian = system: OVCAR-4 ovarian
A549 NSCLC = system: A549 NSCLC
UO-31 renal = system: UO-31 renal
HOP-92 NSCLC = system: HOP-92 NSCLC
SF-268 CNS = system: SF-268 CNS
HCT-116 colon = system: HCT-116 colon
SW-620 colon = system: SW-620 colon
MDA-MB-231 breast = system: MDA-MB-231 breast
T-47D breast = system: T-47D breast
SN12C renal = system: SN12C renal
SK-OV-3 ovarian = system: SK-OV-3 ovarian
K-562 leukemia = system: K-562 leukemia
PC-3 prostate = system: PC-3 prostate
IGROV1 ovarian = system: IGROV1 ovarian
SNB-19 CNS = system: SNB-19 CNS
TK-10 renal = system: TK-10 renal
HCC-2998 colon = system: HCC-2998 colon
HOP-62 NSCLC = system: HOP-62 NSCLC
OVCAR-8 ovarian = system: OVCAR-8 ovarian
BT-549 breast = system: BT-549 breast
HS 578T breast = system: HS 578T breast
HL-60(TB) leukemia = system: HL-60(TB) leukemia
SK-MEL-5 melanoma = system: SK-MEL-5 melanoma
SNB-75 CNS = system: SNB-75 CNS
SF-295 CNS = system: SF-295 CNS
MOLT-4 leukemia = system: MOLT-4 leukemia
U251 CNS = system: U251 CNS
DU-145 prostate = system: DU-145 prostate
NCI-H226 lung = system: NCI-H226 lung
HT29 colon = system: HT29 colon
UACC-62 melanoma = system: UACC-62 melanoma
M14 melanoma = system: M14 melanoma
MDA-MB-435 = system: MDA-MB-435
LOX IMVI melanoma = system: LOX IMVI melanoma
COLO 205 colon = system: COLO 205 colon
OVCAR-3 ovarian = system: OVCAR-3 ovarian
CAKI-1 renal = system: CAKI-1 renal
RXF 393 renal = system: RXF 393 renal

COC(=O)[C@@H](C)C[C@H](Cc1ccccc1)NC(=O)c1cccc([C@@H](C[C@H](C(C)C)N(C)C(=O)[C@@H](NC(=O)[C@H]2CCCCN2C)C2CC2)OC(C)=O)n1
TGI (786-0 renal): 11.3 µM and > 100 µM
TGI (ACHN renal): 33.3 µM and > 100 µM
TGI (HCT-15 colon): 20.6 µM and > 100 µM
GI50 (CCRF-CEM leukemia): 0.00333 µM and 0.0234 µM
TGI (CCRF-CEM leukemia): 33.3 µM and > 100 µM
GI50 (SR leukemia): 0.00333 µM
TGI (SR leukemia): 33.3 µM and 69.9 µM
GI50 (MCF7 breast): 0.00333 µM
TGI (MCF7 breast): 33.3 µM and > 100 µM
GI50 (SK-MEL-2 melanoma): 0.00333 µM
TGI (SK-MEL-2 melanoma): 33.3 µM and > 100 µM
GI50 (NCI/ADR-RES ovarian): 5.06 µM and 4.67 µM
TGI (NCI/ADR-RES ovarian): 33.3 µM and > 100 µM
TGI (MALME-3M melanoma): 33.3 µM and > 100 µM
TGI (NCI-H23 lung): 33.3 µM and > 100 µM
GI50 (SF-539 CNS): 0.02 µM
TGI (SF-539 CNS): 0.0764 µM
TGI (OVCAR-5 ovarian): 33.3 µM and > 100 µM
GI50 (UACC-257 melanoma): > 100 µM
TGI (UACC-257 melanoma): > 100 µM
TGI (NCI-H522 lung): 37.3 µM
GI50 (NCI-H460 lung): 0.00333 µM and 0.0297 µM
TGI (NCI-H460 lung): 33.3 µM and > 100 µM
GI50 (KM12 colon): 0.00333 µM and 0.0298 µM
TGI (KM12 colon): 33.3 µM and > 100 µM
TGI (EKVX NSCLC): 33.3 µM and > 100 µM
GI50 (RPMI-8226 leukemia): 0.00333 µM
TGI (RPMI-8226 leukemia): 7.63 µM and 55.6 µM
GI50 (SK-MEL-28 melanoma): 5.03 µM
TGI (SK-MEL-28 melanoma): 33.3 µM
TGI (OVCAR-4 ovarian): 33.3 µM and > 100 µM
TGI (A549 NSCLC): 33.3 µM and > 100 µM
GI50 (UO-31 renal): 0.0766 µM
TGI (UO-31 renal): 33.3 µM
TGI (HOP-92 NSCLC): 13.6 µM and 86.6 µM
TGI (SF-268 CNS): 33.3 µM and > 100 µM
GI50 (HCT-116 colon): 0.00333 µM
TGI (HCT-116 colon): 3.98 µM and 14.4 µM
GI50 (SW-620 colon): 0.00333 µM
TGI (SW-620 colon): 33.3 µM and > 100 µM
GI50 (MDA-MB-231 breast): 0.00333 µM and 0.0281 µM
TGI (MDA-MB-231 breast): 4.35 µM and 24 µM
GI50 (T-47D breast): > 33.3 µM
TGI (T-47D breast): > 33.3 µM
TGI (SN12C renal): 33.3 µM and > 100 µM
GI50 (SK-OV-3 ovarian): 0.00333 µM and 0.0265 µM
TGI (SK-OV-3 ovarian): 33.3 µM and > 100 µM
GI50 (K-562 leukemia): 0.00333 µM
TGI (K-562 leukemia): 33.3 µM and > 100 µM
GI50 (PC-3 prostate): 0.00333 µM and 0.0223 µM
TGI (PC-3 prostate): 33.3 µM and > 100 µM
GI50 (IGROV1 ovarian): 0.00333 µM
TGI (IGROV1 ovarian): 33.3 µM and > 100 µM
GI50 (SNB-19 CNS): 0.00333 µM
TGI (SNB-19 CNS): 33.3 µM and > 100 µM
TGI (TK-10 renal): 33.3 µM and > 100 µM
TGI (HCC-2998 colon): 33.3 µM and > 100 µM
GI50 (HOP-62 NSCLC): 0.00333 µM and 0.0296 µM
TGI (OVCAR-8 ovarian): 33.3 µM and > 100 µM
GI50 (BT-549 breast): 0.00333 µM
TGI (HS 578T breast): 33.3 µM and > 100 µM
TGI (HL-60(TB) leukemia): 0.0111 µM
TGI (SK-MEL-5 melanoma): 1.14 µM
TGI (SNB-75 CNS): 33.3 µM and > 100 µM
GI50 (SF-295 CNS): 0.0363 µM
TGI (SF-295 CNS): > 100 µM
TGI (MOLT-4 leukemia): 33.3 µM and > 100 µM
TGI (U251 CNS): 33.3 µM and > 100 µM
GI50 (DU-145 prostate): 0.00333 µM
TGI (DU-145 prostate): 33.3 µM and > 100 µM
TGI (NCI-H226 lung): 33.3 µM and > 100 µM
GI50 (HT29 colon): 0.00333 µM
GI50 (UACC-62 melanoma): 0.00333 µM
TGI (UACC-62 melanoma): 33.3 µM
TGI (M14 melanoma): 0.0358 µM
TGI (MDA-MB-435): 0.0143 µM
GI50 (LOX IMVI melanoma): 0.00333 µM and 0.019 µM
TGI (LOX IMVI melanoma): 33.3 µM and > 100 µM

Oc1ccc(Nc2nc3ccccc3c3occc23)cc1
GI50 (786-0 renal): 12.2 µM
TGI (786-0 renal): 26.8 µM
GI50 (ACHN renal): 4.54 µM
TGI (ACHN renal): 29.4 µM
GI50 (HCT-15 colon): 14.3 µM
TGI (HCT-15 colon): 40.5 µM
GI50 (SR leukemia): 31.4 µM
TGI (SR leukemia): > 100 µM
GI50 (MCF7 breast): 11.5 µM
TGI (MCF7 breast): 44.4 µM
GI50 (SK-MEL-2 melanoma): 18.2 µM
TGI (SK-MEL-2 melanoma): 42.1 µM
GI50 (NCI/ADR-RES ovarian): 16.2 µM
TGI (NCI/ADR-RES ovarian): 31.5 µM
GI50 (NCI-H23 lung): 12.4 µM
TGI (NCI-H23 lung): 28.5 µM
GI50 (SF-539 CNS): 16.5 µM
TGI (SF-539 CNS): 33.7 µM
GI50 (OVCAR-5 ovarian): 15.6 µM
TGI (OVCAR-5 ovarian): 38.3 µM
GI50 (UACC-257 melanoma): 12.9 µM
TGI (UACC-257 melanoma): 30.7 µM
GI50 (NCI-H522 lung): 9.03 µM
TGI (NCI-H522 lung): 26.1 µM
GI50 (NCI-H460 lung): 12.6 µM
TGI (NCI-H460 lung): 36.1 µM
GI50 (KM12 colon): 15.5 µM
TGI (KM12 colon): 38.6 µM
GI50 (COLO 205 colon): 18.9 µM
TGI (COLO 205 colon): 50.1 µM
GI50 (OVCAR-3 ovarian): 5.8 µM
TGI (OVCAR-3 ovarian): 22.8 µM
GI50 (EKVX NSCLC): 14.5 µM
TGI (EKVX NSCLC): 39.2 µM
GI50 (RPMI-8226 leukemia): 7.63 µM
TGI (RPMI-8226 leukemia): 72.6 µM
GI50 (SK-MEL-28 melanoma): 17.6 µM
TGI (SK-MEL-28 melanoma): 45.6 µM
GI50 (OVCAR-4 ovarian): 12.3 µM
TGI (OVCAR-4 ovarian): 98.9 µM
GI50 (A549 NSCLC): 14.4 µM
TGI (A549 NSCLC): 52.1 µM
GI50 (UO-31 renal): 10.1 µM
TGI (UO-31 renal): 33.3 µM
GI50 (HOP-92 NSCLC): 13.9 µM
TGI (HOP-92 NSCLC): 32 µM
GI50 (SF-268 CNS): 11.4 µM
TGI (SF-268 CNS): 31.6 µM
GI50 (HCT-116 colon): 16.3 µM
TGI (HCT-116 colon): 34.5 µM
GI50 (SW-620 colon): 19.7 µM
TGI (SW-620 colon): 50.5 µM
GI50 (MDA-MB-231 breast): 5.34 µM
TGI (MDA-MB-231 breast): 25.7 µM
GI50 (T-47D breast): 17 µM
TGI (T-47D breast): 51.2 µM
GI50 (CAKI-1 renal): 12.1 µM
TGI (CAKI-1 renal): 28.1 µM
GI50 (SN12C renal): 12.2 µM
TGI (SN12C renal): 26.5 µM
GI50 (SK-OV-3 ovarian): 16.2 µM
TGI (SK-OV-3 ovarian): 33.7 µM
GI50 (K-562 leukemia): 9.84 µM
TGI (K-562 leukemia): > 100 µM
GI50 (PC-3 prostate): 16.1 µM
TGI (PC-3 prostate): 66.4 µM
GI50 (IGROV1 ovarian): 2.93 µM
TGI (IGROV1 ovarian): 23.5 µM
GI50 (SNB-19 CNS): 17.2 µM
TGI (SNB-19 CNS): 50.5 µM
GI50 (TK-10 renal): 13 µM
TGI (TK-10 renal): 27.1 µM
GI50 (HCC-2998 colon): 11.4 µM
TGI (HCC-2998 colon): 23.7 µM
GI50 (HOP-62 NSCLC): 16.9 µM
TGI (HOP-62 NSCLC): > 100 µM
GI50 (OVCAR-8 ovarian): 17.1 µM
TGI (OVCAR-8 ovarian): 58.8 µM
GI50 (BT-549 breast): 6.72 µM
TGI (BT-549 breast): 34.6 µM
GI50 (HS 578T breast): 16.5 µM
TGI (HS 578T breast): 45.4 µM
GI50 (HL-60(TB) leukemia): 10.2 µM
TGI (HL-60(TB) leukemia): > 100 µM
GI50 (SK-MEL-5 melanoma): 8.15 µM
TGI (SK-MEL-5 melanoma): 21.9 µM
GI50 (SF-295 CNS): 11 µM
TGI (SF-295 CNS): 23.9 µM
GI50 (U251 CNS): 11.3 µM
TGI (U251 CNS): 26.1 µM
GI50 (RXF 393 renal): 11.3 µM
TGI (RXF 393 renal): 41.3 µM
GI50 (DU-145 prostate): 11.3 µM
TGI (DU-145 prostate): 23.4 µM
GI50 (UACC-62 melanoma): 11.7 µM
TGI (UACC-62 melanoma): 23.9 µM
GI50 (M14 melanoma): 14.2 µM
TGI (M14 melanoma): 34.6 µM
GI50 (MDA-MB-435): 9.77 µM
TGI (MDA-MB-435): 21.6 µM
GI50 (LOX IMVI melanoma): 2.21 µM
TGI (LOX IMVI melanoma): 15.9 µM
